In patent publication US20230085307A1, “PYRIDAZINONE COMPOUND AND HERBICIDE” (NISSAN CHEMICAL CORPORATION, priority 2019, published 2023):

Legend:
[1] = system: southern crabgrass; assay: Test Example 5: herbicidal effect by foliage application, plastic box (Table 20, symbol F); format: in vivo, southern crabgrass (Digitaria ciliaris); settings: for F: southern crabgrass, herbicidal effect grade: three weeks after application
In short: (§1)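 Post-emergence foliar test in sterilized diluvial soil. Compound applied as water-diluted emulsion at a predetermined rate to 14-day-old plants; evaluation at three weeks.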

[2] = system: wild oat; assay: Test Example 4: herbicidal effect by soil treatment (Table 19, symbol I); format: in vivo, wild oat (Avena fatua); settings: amount of applied herbicide 320 g/ha
In short: (§2)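 Emulsion of test compound, water-diluted to predetermined amount, sprayed on soil after sowing (seed depth ~1.5 cm, sterilized diluvial soil). Greenhouse, 25–30° C. Effect graded at three weeks post-spray.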

[3] = system: southern crabgrass; assay: Test Example 4: herbicidal effect by soil treatment (Table 19, symbol F); format: in vivo, southern crabgrass (Digitaria ciliaris); settings: amount of applied herbicide 320 g/ha
In short: as §2

[4] = system: barnyard grass; assay: Test Example 5: herbicidal effect by foliage application, plastic box (Table 20, symbol H); format: in vivo, barnyard grass (Echinochloa crus-galli); settings: for H: barnyard grass, herbicidal effect grade: three weeks after application
In short: as §1

[5] = system: redroot pigweed; assay: Test Example 4: herbicidal effect by soil treatment (Table 19, symbol N); format: in vivo, redroot pigweed (Amaranthus retroflexus); settings: amount of applied herbicide 320 g/ha
In short: as §2

[6] = system: lambsquarters; assay: Test Example 5: herbicidal effect by foliage application, plastic box (Table 20, symbol O); format: in vivo, lambsquarters (Chenopodium album); settings: for O: lambsquarters, herbicidal effect grade: three weeks after application
In short: as §1

[7] = system: Japanese bulrush; assay: Test Example 2: herbicidal activity, application during weed generation under submerged conditions (Table 17, symbol B); format: in vivo, Japanese bulrush (Schoenoplectus juncoides); settings: AAH 320 g/ha; application during weed generation, submerged conditions
In short: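 Wagner pot, alluvial soil, 4 cm flood; mixed sowing of all species; greenhouse 25° C.–30° C. Emulsifiable formulation, water-diluted to predetermined dose, applied to paddy water at 1–2 leaf stage. Effect rated at 3 wk using the earlier test's scoring criteria.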

[8] = system: blackgrass; assay: Test Example 4: herbicidal effect by soil treatment (Table 19, symbol J); format: in vivo, blackgrass (Alopecurus myosuroides); settings: amount of applied herbicide 320 g/ha
In short: as §2

[9] = system: Chinese sprangletop; assay: Test Example 3: herbicidal effect by foliage application, Wagner pot (Table 18, symbol D); format: in vivo, chinese sprangletop (Leptochloa chinensis); settings: for herbicidal effect on Chinese sprangletop (D): 320 g/ha
In short: (§3)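 Plants were sown in alluvial soil held under 0.1–0.5 cm standing water and grown 14 days in a greenhouse at 25–30 °C. An emulsifiable formulation, water-diluted to the set dose, was then sprayed onto the foliage, and effects were scored three weeks later using previously defined criteria.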

[10] = system: velvetleaf; assay: Test Example 5: herbicidal effect by foliage application, plastic box (Table 20, symbol M); format: in vivo, velvetleaf (Abutilon theophrasti); settings: for M: velvetleaf, herbicidal effect grade: three weeks after application
In short: as §1

[11] = system: Italian ryegrass; assay: Test Example 5: herbicidal effect by foliage application, plastic box (Table 20, symbol K); format: in vivo, Italian ryegrass (Lolium multiflorum); settings: for K: Italian ryegrass, herbicidal effect grade: three weeks after application
In short: as §1

[12] = system: green foxtail; assay: Test Example 4: herbicidal effect by soil treatment (Table 19, symbol G); format: in vivo, green foxtail (Setaria viridis); settings: amount of applied herbicide 320 g/ha
In short: as §2

[13] = system: oval-leafed pondweed; assay: Test Example 1: herbicidal activity, application before weed generation under submerged conditions (Table 16, symbol C); format: in vivo, oval-leafed pondweed (Monochoria vaginalis); settings: amount of applied herbicide 320 g/ha
In short: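 Alluvial soil was flooded to 4 cm depth, weed seeds were sown mixed and 2.5-leaf rice seedlings were transplanted. On sowing day, the compound's emulsion, diluted in water to a set dose, was applied to the water surface. Plants grew at 25–30 °C and were scored 0–5 after three weeks.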

[14] = system: rice flat sedge; assay: Test Example 3: herbicidal effect by foliage application, Wagner pot (Table 18, symbol E); format: in vivo, rice flat sedge (Cyperus iria); settings: for herbicidal effect on rice flat sedge (E): 320 g/ha
In short: as §3

[15] = system: wild oat; assay: Test Example 5: herbicidal effect by foliage application, plastic box (Table 20, symbol I); format: in vivo, wild oat (Avena fatua); settings: for I: wild oat, herbicidal effect grade: three weeks after application
In short: as §1

[16] = system: blackgrass; assay: Test Example 5: herbicidal effect by foliage application, plastic box (Table 20, symbol J); format: in vivo, blackgrass (Alopecurus myosuroides); settings: for J: blackgrass, herbicidal effect grade: three weeks after application
In short: as §1

[17] = 320 g/ha, foliage application after 14-day growth, evaluated three weeks after application
[18] = foliage application, AAH 320 g/ha, evaluated three weeks after application
[19] = amount of applied herbicide 320 g/ha

Compound	Herbicidal effect by soil treatment, I: wild oat [2]	Herbicidal effect by soil treatment, F: southern crabgrass [3]	Herbicidal effect by soil treatment, N: redroot pigweed [5]	herbicidal effect rating, B: Japanese bulrush [7]	Herbicidal effect by soil treatment, J: blackgrass [8]	herbicidal effect on Chinese sprangletop (D) [9]	Herbicidal effect by soil treatment, G: green foxtail [12]	Herbicidal effect, C: oval-leafed pondweed [13]	herbicidal effect on rice flat sedge (E) [14]	F: southern crabgrass, herbicidal effect grade ([1]; foliage application, 320 g/ha)	I: wild oat, herbicidal effect grade [2]	F: southern crabgrass, herbicidal effect grade [3]	H: barnyard grass, herbicidal effect grade ([4]; foliage application, 320 g/ha)	N: redroot pigweed, herbicidal effect grade [5]	O: lambsquarters, herbicidal effect grade ([6]; foliage application, 320 g/ha)	J: blackgrass, herbicidal effect grade [8]	M: velvetleaf, herbicidal effect grade ([10]; foliage application, 320 g/ha)	K: Italian ryegrass, herbicidal effect grade ([11]; foliage application, 320 g/ha)	I: wild oat, herbicidal effect grade ([15]; foliage application, 320 g/ha)	J: blackgrass, herbicidal effect grade ([16]; foliage application, 320 g/ha)	other results
COc1ccc2c(-c3c(OC(=O)C4CCCCC4)c(C)nn(C)c3=O)c(-c3ccccc3OC)sc2c1 [3-156]	0 (Herbicidal rate of 5% or less (almost no effect))	0 (Herbicidal rate of 5% or less (almost no effect))	0 (Herbicidal rate of 5% or less (almost no effect))	4 (Herbicidal rate of 70% or more and less than 90%)	0 (Herbicidal rate of 5% or less (almost no effect))	4 (Herbicidal rate of 70% or more and less than 90%)	0 (Herbicidal rate of 5% or less (almost no effect))	4 (Herbicidal rate of 70% or more and less than 90%)	3 (Herbicidal rate of 40% or more and less than 70%)	–	–	–	–	–	–	–	–	–	–	–	herbicidal effect on F: southern crabgrass (evaluation grade 0-5) [1, 17]: 5 (Herbicidal rate of 90% or more (almost completely withered)); herbicidal effect on H: barnyard grass (evaluation grade 0-5) [4, 17]: 5 (Herbicidal rate of 90% or more (almost completely withered)); herbicidal effect on O: lambsquarters (evaluation grade 0-5) [6, 17]: 4 (Herbicidal rate of 70% or more and less than 90%); herbicidal effect on M: velvetleaf (evaluation grade 0-5) [10, 17]: 5 (Herbicidal rate of 90% or more (almost completely withered)); herbicidal effect on K: Italian ryegrass (evaluation grade 0-5) [11, 17]: 3 (Herbicidal rate of 40% or more and less than 70%); herbicidal effect on I: wild oat (evaluation grade 0-5) [15, 17]: 4 (Herbicidal rate of 70% or more and less than 90%); herbicidal effect on J: blackgrass (evaluation grade 0-5) [16, 17]: 4 (Herbicidal rate of 70% or more and less than 90%)
COc1ccccc1-c1sc2cc(OC(F)F)ccc2c1-c1c(O)c(C)nn(C)c1=O [3-113]	–	–	–	2 (Herbicidal rate of 20% or more and less than 40%)	–	3 (Herbicidal rate of 40% or more and less than 70%)	–	2 (Herbicidal rate of 20% or more and less than 40%)	5 (Herbicidal rate of 90% or more (almost completely withered))	1 (Herbicidal rate of 5% or more and less than 20%)	0 (Herbicidal rate of 5% or less (almost no effect))	4 (Herbicidal rate of 70% or more and less than 90%)	5 (Herbicidal rate of 90% or more (almost completely withered))	5 (Herbicidal rate of 90% or more (almost completely withered))	5 (Herbicidal rate of 90% or more (almost completely withered))	4 (Herbicidal rate of 70% or more and less than 90%)	5 (Herbicidal rate of 90% or more (almost completely withered))	5 (Herbicidal rate of 90% or more (almost completely withered))	4 (Herbicidal rate of 70% or more and less than 90%)	5 (Herbicidal rate of 90% or more (almost completely withered))	G: green foxtail, herbicidal effect grade [12]: 5 (Herbicidal rate of 90% or more (almost completely withered))
CCCC(=O)Oc1c(C)nn(C)c(=O)c1-c1c(-c2ccc(C(F)(F)F)cc2)sc2cc(F)ccc12 [3-140]	0 (Herbicidal rate of 5% or less (almost no effect))	0 (Herbicidal rate of 5% or less (almost no effect))	4 (Herbicidal rate of 70% or more and less than 90%)	3 (Herbicidal rate of 40% or more and less than 70%)	0 (Herbicidal rate of 5% or less (almost no effect))	4 (Herbicidal rate of 70% or more and less than 90%)	0 (Herbicidal rate of 5% or less (almost no effect))	3 (Herbicidal rate of 40% or more and less than 70%)	5 (Herbicidal rate of 90% or more (almost completely withered))	1 (Herbicidal rate of 5% or more and less than 20%)	–	–	3 (Herbicidal rate of 40% or more and less than 70%)	–	4 (Herbicidal rate of 70% or more and less than 90%)	–	5 (Herbicidal rate of 90% or more (almost completely withered))	0 (Herbicidal rate of 5% or less (almost no effect))	2 (Herbicidal rate of 20% or more and less than 40%)	0 (Herbicidal rate of 5% or less (almost no effect))	–
Cc1nn(C)c(=O)c(-c2c(-c3ccc4c(c3)OC(F)(F)O4)sc3ccc(F)cc23)c1O [2-392]	–	–	–	0 (Herbicidal rate of 5% or less (almost no effect))	–	–	–	0 (Herbicidal rate of 5% or less (almost no effect))	–	–	–	–	–	–	–	–	–	–	–	–	F: southern crabgrass, herbicidal effect (criteria 0-5) [1, 18]: 4 (Herbicidal rate of 70% or more and less than 90%); herbicidal effect, I: wild oat [2]: 0 (Herbicidal rate of 5% or less (almost no effect)); herbicidal effect, F: southern crabgrass [3]: 2 (Herbicidal rate of 20% or more and less than 40%); H: barnyard grass, herbicidal effect (criteria 0-5) [4, 18]: 5 (Herbicidal rate of 90% or more (almost completely withered)); herbicidal effect, N: redroot pigweed [5]: 3 (Herbicidal rate of 40% or more and less than 70%); O: lambsquarters, herbicidal effect (criteria 0-5) [6, 18]: 5 (Herbicidal rate of 90% or more (almost completely withered)); herbicidal effect, J: blackgrass [8]: 0 (Herbicidal rate of 5% or less (almost no effect)); herbicidal effect on D: Chinese sprangletop [9, 19]: 4 (Herbicidal rate of 70% or more and less than 90%); M: velvetleaf, herbicidal effect (criteria 0-5) [10, 18]: 5 (Herbicidal rate of 90% or more (almost completely withered)); K: Italian ryegrass, herbicidal effect (criteria 0-5) [11, 18]: 5 (Herbicidal rate of 90% or more (almost completely withered)); herbicidal effect, G: green foxtail [12]: 1 (Herbicidal rate of 5% or more and less than 20%); herbicidal effect on E: rice flat sedge [14, 19]: 5 (Herbicidal rate of 90% or more (almost completely withered)); I: wild oat, herbicidal effect (criteria 0-5) [15, 18]: 4 (Herbicidal rate of 70% or more and less than 90%); J: blackgrass, herbicidal effect (criteria 0-5) [16, 18]: 0 (Herbicidal rate of 5% or less (almost no effect))
COCCOc1ccc2c(-c3c(O)c(C)nn(C)c3=O)c(-c3ccccc3OC)sc2c1 [3-121]	–	–	–	3 (Herbicidal rate of 40% or more and less than 70%)	–	4 (Herbicidal rate of 70% or more and less than 90%)	–	5 (Herbicidal rate of 90% or more (almost completely withered))	5 (Herbicidal rate of 90% or more (almost completely withered))	5 (Herbicidal rate of 90% or more (almost completely withered))	3 (Herbicidal rate of 40% or more and less than 70%)	5 (Herbicidal rate of 90% or more (almost completely withered))	5 (Herbicidal rate of 90% or more (almost completely withered))	5 (Herbicidal rate of 90% or more (almost completely withered))	5 (Herbicidal rate of 90% or more (almost completely withered))	5 (Herbicidal rate of 90% or more (almost completely withered))	5 (Herbicidal rate of 90% or more (almost completely withered))	5 (Herbicidal rate of 90% or more (almost completely withered))	5 (Herbicidal rate of 90% or more (almost completely withered))	5 (Herbicidal rate of 90% or more (almost completely withered))	G: green foxtail, herbicidal effect grade [12]: 5 (Herbicidal rate of 90% or more (almost completely withered))
